Test results published in ChEMBL document CHEMBL1201862, “PubChem BioAssay data set” (2004).
One block for each compound: values may come before it. Active and inactive are the calls of the source.

Legend:
[1] = molecular target: T1, DNA repair protein RAD52 homolog (Homo sapiens, UniProt P43351); assay type: functional, biochemical
T1 sequence (P43351 whole entry): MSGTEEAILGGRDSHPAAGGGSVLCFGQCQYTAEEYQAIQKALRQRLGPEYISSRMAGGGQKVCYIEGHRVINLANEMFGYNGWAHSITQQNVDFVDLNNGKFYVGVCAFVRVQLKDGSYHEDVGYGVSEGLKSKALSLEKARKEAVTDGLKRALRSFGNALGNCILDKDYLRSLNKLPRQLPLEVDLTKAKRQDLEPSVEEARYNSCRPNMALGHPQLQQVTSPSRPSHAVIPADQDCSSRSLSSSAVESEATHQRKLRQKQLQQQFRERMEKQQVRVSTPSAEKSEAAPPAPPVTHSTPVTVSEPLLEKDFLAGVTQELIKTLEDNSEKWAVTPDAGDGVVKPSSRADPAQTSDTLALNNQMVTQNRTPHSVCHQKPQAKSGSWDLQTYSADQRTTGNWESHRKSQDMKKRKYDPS

[2] = test system: HEK293; assay: HEK cell cytotoxicity by LDH release, dose response, cytotoxicity control for IDE activator project, fluorescence, HEK cells (AID 588440); assay type: functional, cell-based; details: Homo sapiens;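 further: cytotoxicity by LDH release measuring loss of membrane integrity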
[3] = molecular target: T2, Insulin-degrading enzyme (Homo sapiens, UniProt P14735); assay: activators of recombinant IDE enzyme, dose response, counter-screen for IDE activator project, biochemical, fluorescence polarization (AID 588681)
T2 sequence (P14735 whole entry): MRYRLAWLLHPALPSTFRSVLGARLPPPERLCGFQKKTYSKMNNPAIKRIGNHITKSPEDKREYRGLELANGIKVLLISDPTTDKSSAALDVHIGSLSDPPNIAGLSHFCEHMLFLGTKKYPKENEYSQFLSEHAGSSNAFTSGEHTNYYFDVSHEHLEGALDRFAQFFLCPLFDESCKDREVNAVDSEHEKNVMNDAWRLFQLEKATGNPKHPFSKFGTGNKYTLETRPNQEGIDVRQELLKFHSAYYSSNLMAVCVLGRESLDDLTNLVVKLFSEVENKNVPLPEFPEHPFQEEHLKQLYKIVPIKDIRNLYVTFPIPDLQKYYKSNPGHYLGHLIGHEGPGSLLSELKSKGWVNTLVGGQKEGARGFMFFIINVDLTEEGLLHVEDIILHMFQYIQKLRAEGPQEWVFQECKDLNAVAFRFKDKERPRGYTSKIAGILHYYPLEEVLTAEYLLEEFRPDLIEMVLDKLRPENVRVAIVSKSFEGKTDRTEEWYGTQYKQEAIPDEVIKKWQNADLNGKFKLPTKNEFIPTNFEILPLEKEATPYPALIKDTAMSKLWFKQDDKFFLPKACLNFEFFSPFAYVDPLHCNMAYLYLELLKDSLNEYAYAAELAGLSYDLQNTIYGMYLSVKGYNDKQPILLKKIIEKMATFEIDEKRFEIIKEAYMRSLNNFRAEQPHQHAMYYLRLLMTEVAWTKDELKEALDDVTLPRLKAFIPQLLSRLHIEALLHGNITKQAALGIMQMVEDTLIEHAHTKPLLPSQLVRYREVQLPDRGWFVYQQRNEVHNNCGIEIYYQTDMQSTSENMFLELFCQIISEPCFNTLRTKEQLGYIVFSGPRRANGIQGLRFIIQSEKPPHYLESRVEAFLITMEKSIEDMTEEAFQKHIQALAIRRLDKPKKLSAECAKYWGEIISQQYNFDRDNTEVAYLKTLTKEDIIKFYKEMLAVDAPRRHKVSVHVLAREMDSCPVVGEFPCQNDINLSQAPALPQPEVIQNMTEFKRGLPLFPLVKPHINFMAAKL

[4] = molecular target: T2, Insulin-degrading enzyme; assay: activators of endogenous IDE in HEK cells, dose response, cell-based, fluorescence polarization (AID 588439); assay type: functional
[5] = test system: HEK293; assay: optical interference in Abeta FP readout, dose response, artefact control for IDE activator project, biochemical, fluorescence polarization (AID 588442); assay type: functional, cell-based; details: Homo sapiens
[6] = test system: INS1; assay: inhibitors of cytokine-induced nitrite release, dose response, cell-based, Griess absorbance, INS-1E, dry powder, set 2 (AID 488868); assay type: functional; details: Rattus norvegicus
[7] = ADAM10 inhibitors, peptide cleavage, dose response, biochemical, QFRET (AID 743254);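 further: ADAM10 enzyme with the DM2 quenched FRET peptide as substrate; EDANS fluorescence gain as the protease cuts the substrate; inhibitor potency against ADAM10 proteolytic activity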
[8] = molecular target: Disintegrin and metalloproteinase domain-containing protein 17 (Homo sapiens, UniProt P78536); assay: ADAM17 protease inhibitors, dose response, counter-screen for ADAM10 exosite inhibitor project, biochemical, quenched FRET substrate (AID 743253)
Chain of Disintegrin and metalloproteinase domain-containing protein 17 (P78536 whole entry, the tested form may be a part): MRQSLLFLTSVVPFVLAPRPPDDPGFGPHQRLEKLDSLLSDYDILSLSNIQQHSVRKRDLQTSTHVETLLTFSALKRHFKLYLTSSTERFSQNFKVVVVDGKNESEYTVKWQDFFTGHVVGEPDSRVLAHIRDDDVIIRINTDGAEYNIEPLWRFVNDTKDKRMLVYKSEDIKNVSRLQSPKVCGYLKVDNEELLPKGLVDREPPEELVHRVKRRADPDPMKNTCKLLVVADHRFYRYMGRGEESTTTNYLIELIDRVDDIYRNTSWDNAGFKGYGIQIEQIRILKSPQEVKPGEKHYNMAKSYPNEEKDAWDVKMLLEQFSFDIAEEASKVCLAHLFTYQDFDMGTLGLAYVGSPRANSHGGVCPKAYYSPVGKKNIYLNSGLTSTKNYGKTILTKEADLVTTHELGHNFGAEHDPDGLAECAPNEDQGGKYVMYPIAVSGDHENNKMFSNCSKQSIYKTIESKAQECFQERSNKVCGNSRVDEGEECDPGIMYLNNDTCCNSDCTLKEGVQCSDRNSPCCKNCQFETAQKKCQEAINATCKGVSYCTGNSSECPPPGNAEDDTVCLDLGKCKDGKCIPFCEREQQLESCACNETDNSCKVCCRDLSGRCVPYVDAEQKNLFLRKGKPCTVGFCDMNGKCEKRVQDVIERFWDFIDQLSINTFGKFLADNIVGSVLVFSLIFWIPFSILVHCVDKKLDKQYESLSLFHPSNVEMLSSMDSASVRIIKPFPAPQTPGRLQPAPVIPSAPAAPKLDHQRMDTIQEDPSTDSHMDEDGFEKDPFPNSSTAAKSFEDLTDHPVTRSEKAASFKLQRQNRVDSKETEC

[9] = test system: Erythrocyte; assay: FACS-based assay to assess parasite growth inhibition 96 hr Measured in Cell-Based System Using Flow Cytometry - 2126-05_Inhibitor_Dose_DryPowder_Activity. [Related pubchem assays (depositor defined):AID488774]; assay type: functional; details: Homo sapiens
[10] = A cell-based HTS for delayed death inhibitors of the malarial parasite plastid Measured in Microorganism System Using Plate Reader - 2126-02_Inhibitor_Dose_DryPowder_Activity.; assay type: functional, organism-based
[11] = A cell-based HTS for delayed death inhibitors of the malarial parasite plastid Measured in Microorganism System Using Plate Reader - 2126-01_Inhibitor_Dose_DryPowder_Activity.; assay type: functional, organism-based
[12] = FACS-based assay to assess parasite growth inhibition 48 hr Measured in Cell-Based System Using Flow Cytometry - 2126-03_Inhibitor_Dose_DryPowder_Activity. [Related pubchem assays (depositor defined):AID488774]; assay type: functional; details: Homo sapiens
[13] = molecular target: T3, Caspase-3 (Homo sapiens, UniProt P42574); assay: SAR Analysis of small molecule inhibitors of Sentrin-specific proteases (SENPs) using a Caspase-3 Selectivity assay. [Related pubchem assays (depositor defined):AID2540, AID2599, AID434973, AID489001]; assay type: functional
T3 sequence (P42574 whole entry): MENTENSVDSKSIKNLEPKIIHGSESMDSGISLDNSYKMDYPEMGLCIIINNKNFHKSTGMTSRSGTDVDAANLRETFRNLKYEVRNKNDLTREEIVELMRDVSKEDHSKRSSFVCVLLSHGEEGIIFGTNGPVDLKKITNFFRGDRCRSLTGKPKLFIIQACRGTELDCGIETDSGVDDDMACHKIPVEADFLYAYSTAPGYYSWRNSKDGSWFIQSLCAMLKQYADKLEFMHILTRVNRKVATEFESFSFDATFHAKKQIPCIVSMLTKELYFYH

[14] = molecular target: T4, Sentrin-specific protease 8 (Homo sapiens, UniProt Q96LD8); assay: SENP8 protease inhibitors, SAR follow-up, biochemical, luminescence (AID 504501); assay type: functional
T4 sequence (Q96LD8 whole entry): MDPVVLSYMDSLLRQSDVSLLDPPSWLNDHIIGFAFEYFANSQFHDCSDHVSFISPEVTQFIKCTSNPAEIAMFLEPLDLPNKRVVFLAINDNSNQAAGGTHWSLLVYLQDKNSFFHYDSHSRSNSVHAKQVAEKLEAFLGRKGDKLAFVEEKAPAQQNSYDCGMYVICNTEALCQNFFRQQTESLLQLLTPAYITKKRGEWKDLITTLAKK

[15] = molecular target: T3, Caspase-3; assay: caspase-3 inhibitors as off-family protease, SAR follow-up, selectivity assay for SENP protease inhibitor project, biochemical, luminescence, set 2 (AID 588599); assay type: functional
[16] = molecular target: T5, Sentrin-specific protease 7 (Homo sapiens, UniProt Q9BQF6); assay: SENP7 protease inhibitors, SAR follow-up, biochemical, luminescence, set 2 (AID 588600); assay type: functional
T5 sequence (Q9BQF6 whole entry): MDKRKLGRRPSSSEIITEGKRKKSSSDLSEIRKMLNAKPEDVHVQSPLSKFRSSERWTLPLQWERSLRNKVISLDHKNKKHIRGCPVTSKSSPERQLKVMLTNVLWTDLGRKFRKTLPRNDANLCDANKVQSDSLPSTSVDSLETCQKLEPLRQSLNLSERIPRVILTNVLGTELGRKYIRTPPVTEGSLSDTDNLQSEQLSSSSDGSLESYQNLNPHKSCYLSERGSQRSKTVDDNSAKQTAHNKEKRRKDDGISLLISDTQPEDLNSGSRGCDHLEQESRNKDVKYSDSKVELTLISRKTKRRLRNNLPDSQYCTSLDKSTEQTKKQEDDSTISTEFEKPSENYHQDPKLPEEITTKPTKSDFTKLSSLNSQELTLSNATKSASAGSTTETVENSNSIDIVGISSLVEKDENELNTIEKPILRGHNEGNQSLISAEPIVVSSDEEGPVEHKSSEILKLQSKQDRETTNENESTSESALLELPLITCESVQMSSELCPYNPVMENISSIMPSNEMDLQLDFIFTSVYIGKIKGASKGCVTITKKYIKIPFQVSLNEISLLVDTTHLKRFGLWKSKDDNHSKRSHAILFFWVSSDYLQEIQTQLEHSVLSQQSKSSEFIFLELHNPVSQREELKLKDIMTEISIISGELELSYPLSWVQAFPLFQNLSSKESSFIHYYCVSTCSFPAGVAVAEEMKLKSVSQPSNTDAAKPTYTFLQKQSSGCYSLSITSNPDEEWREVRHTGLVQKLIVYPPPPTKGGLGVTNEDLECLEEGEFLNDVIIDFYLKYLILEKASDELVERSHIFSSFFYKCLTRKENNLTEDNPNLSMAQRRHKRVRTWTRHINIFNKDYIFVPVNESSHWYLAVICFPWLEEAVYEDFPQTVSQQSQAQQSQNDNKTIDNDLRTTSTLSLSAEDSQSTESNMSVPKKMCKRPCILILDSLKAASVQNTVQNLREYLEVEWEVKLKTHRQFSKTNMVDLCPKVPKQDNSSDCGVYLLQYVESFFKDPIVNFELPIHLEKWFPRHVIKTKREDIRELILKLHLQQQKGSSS

[17] = molecular target: T6, Sentrin-specific protease 6 (Homo sapiens, UniProt Q9GZR1); assay: SENP6 protease inhibitors, SAR follow-up, biochemical, luminescence, set 2 (AID 588598); assay type: functional
T6 sequence (Q9GZR1 whole entry): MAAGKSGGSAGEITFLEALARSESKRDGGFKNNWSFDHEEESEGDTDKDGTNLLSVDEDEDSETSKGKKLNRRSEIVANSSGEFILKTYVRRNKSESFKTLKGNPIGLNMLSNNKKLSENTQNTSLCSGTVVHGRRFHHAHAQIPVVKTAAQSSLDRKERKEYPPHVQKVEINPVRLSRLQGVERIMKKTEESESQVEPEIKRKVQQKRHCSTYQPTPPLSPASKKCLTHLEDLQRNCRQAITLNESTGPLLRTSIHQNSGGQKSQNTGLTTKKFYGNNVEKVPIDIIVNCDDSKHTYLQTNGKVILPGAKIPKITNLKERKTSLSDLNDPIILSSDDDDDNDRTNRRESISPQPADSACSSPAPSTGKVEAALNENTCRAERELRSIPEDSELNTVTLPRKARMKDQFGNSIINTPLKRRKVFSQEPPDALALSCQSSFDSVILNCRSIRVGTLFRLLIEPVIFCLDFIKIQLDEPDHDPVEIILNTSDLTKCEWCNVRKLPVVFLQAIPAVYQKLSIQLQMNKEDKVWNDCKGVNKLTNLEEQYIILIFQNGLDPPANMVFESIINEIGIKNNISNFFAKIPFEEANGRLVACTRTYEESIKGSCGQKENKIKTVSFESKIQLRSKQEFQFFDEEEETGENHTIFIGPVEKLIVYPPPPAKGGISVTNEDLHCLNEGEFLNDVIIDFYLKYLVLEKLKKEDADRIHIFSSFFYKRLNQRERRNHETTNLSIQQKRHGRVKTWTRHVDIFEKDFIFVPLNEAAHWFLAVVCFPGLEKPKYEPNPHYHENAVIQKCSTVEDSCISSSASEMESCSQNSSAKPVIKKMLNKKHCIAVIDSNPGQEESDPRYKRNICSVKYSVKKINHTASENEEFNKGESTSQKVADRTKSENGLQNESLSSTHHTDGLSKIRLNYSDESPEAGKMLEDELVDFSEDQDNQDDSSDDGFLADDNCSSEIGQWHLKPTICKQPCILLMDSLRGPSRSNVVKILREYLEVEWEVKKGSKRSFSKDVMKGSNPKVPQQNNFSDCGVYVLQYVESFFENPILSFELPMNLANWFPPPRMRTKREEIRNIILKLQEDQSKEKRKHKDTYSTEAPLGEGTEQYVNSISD

[18] = molecular target: T5, Sentrin-specific protease 7; assay: SENP7 protease inhibitors, SAR follow-up, biochemical, luminescence (AID 504497); assay type: functional
[19] = molecular target: T6, Sentrin-specific protease 6; assay: SAR Analysis of small molecule inhibitors of Sentrin-specific protease 6 (SENP6) using a Luminescent assay. [Related pubchem assays (depositor defined):AID2582, AID2599]; assay type: functional
[20] = molecular target: T4, Sentrin-specific protease 8; assay: SENP8 protease inhibitors, SAR follow-up, biochemical, luminescence, set 2 (AID 588601); assay type: functional

Compound: O=c1c2c(-c3ccccc3)csc2nc2c3ccccc3c(NCCN3CCOCC3)nn12
- AC50 [1]: 1580 nM (active)
- IC50 [2]: 10600 nM (inactive)
- EC50 [3]: 25200 nM (inactive)
- EC50 [4]: > 54700 nM (inactive)
- EC50 [5]: > 55900 nM (inactive)

Compound: COc1ccc(S(=O)(=O)N(C)C[C@@H]2Oc3ccc(NC(=O)Nc4cccc5ccccc45)cc3C(=O)N([C@@H](C)CO)C[C@H]2C)cc1
- AC50 [6]: 43800 nM (active)

Compound: C[C@@H]1CN([C@@H](C)COC(=O)C(C)(C)C)C(=O)c2cc(NC(=O)Nc3ccccc3)ccc2O[C@@H](C)CCCCO[C@H]1CN(C)S(=O)(=O)c1ccc(F)cc1
- IC50 [7]: > 69500 nM (inactive)
- IC50 [8]: > 69500 nM (inactive)
- AC50 [9]: 5 nM (active)
- AC50 [10]: 8.77 nM (active)
- AC50 [11]: 5.39 nM (active)
- AC50 [12]: 4.25 nM (active)

- IC50 [13]: 540 nM (active)
- IC50 [15]: 954 nM (active)
- IC50 [16]: 1210 nM (active)
- IC50 [17]: 1190 nM (active)
- IC50 [18]: 890 nM (active)
- IC50 [19]: 750 nM (active)
Compound: O=C(Nc1nc2ccccc2s1)c1sccc1Cl
- IC50 [14]: 710 nM (active)
- IC50 [20]: 1220 nM (active)
